Tested on: diarrhea-predominant IBS subjects
Experiment: Study S241.3.009: weekly diary questions on adequate relief
Type: in vivo, human
Settings: for Overall responder rate, IBS symptoms / Overall responder rate, abdominal pain/discomfort / Overall responder rate, abnormal bowel habits: 26 weeks
Description: Study S241.3.009 was a Phase III, a double-blind, placebo-controlled, randomized, multinational study to investigate the safety and efficacy of 2 mg TID of cilansetron over 26 weeks in diarrhea-predominant IBS subjects. The study was conducted in 146 multinational study centers. A total of 1307 subjects consented to participate, and 806 subjects were randomized. A total of 792 subjects were analyzed for efficacy and 799 subjects were analyzed for safety. Diagnosis and main criteria for inclusion were IBS subjects satisfying the Rome I criteria (1992); the diarrhea-predominant sub-population of the Rome II criteria; and a minimum abdominal pain/discomfort, stool frequency and consistency determined during the run-in period. Subjects were treated with cilansetron 2 mg tablets given orally TID or matching placebo tablets given orally TID for 26 weeks.
The primary efficacy parameter was the overall response rate for IBS symptoms, based on the weekly question concerning adequate relief of IBS symptoms (abdominal pain/discomfort, abnormal bowel habits) over the 26 weeks period. A responder was a subject who responded “yes” at least 50% of the time during his/her treatment period, with minimum treatment duration of four weeks. The two main secondary efficacy parameters were overall responder rate based on the weekly question on adequate relief of abdominal pain/discomfort and abnormal bowel habits during the 26-week treatment period. The onset of action of cilansetron was also examined using daily diary data (stool frequency, and ratings of urgency and severity) during the initial 8 weeks of trial participation. An additional key secondary efficacy parameter was the number of months (one month equals four weeks) up to six months (24-weeks) that a subject was a responder for IBS symptoms, where a responder was defined as a subject who answered the weekly question with “yes” at least twice for that month. The responder rate for the weekly diary questions on adequate relief at each month and all months, the adequate relief rate, the number of subjects with adequate relief by week, daily diary questions, IBS-QOL scores, and the interruption of activities were also assessed. Safety was evaluated by physical examination, ECG, vital signs, laboratory evaluations, concomitant medications, and AEs.
Studies S24 1.3.OO6, S24 1.3.0 1 1, and S24 1.3.009 used the following efficacy measurements: • The subjects answered the following three questions with “yes” or “no” using a phone diary at the end of each week: • a) During the last week, did you experience adequate relief of your IBS symptoms, such as abdominal pain, abdominal discomfort, abnormal bowel habits? • b) During the last week, did you experience adequate relief of your abdominal pain and/or discomfort? • c) During the last week, did you experience adequate relief of your abnormal bowel habits? • The subjects rated the following symptoms using the phone diary at the end of each day: • abdominal pain/discomfort (five-point scale); • stool consistency (seven-point Bristol Stool Scale); • stool frequency (number of bowel movements each day); • urgency (five-point scale); • straining (yes or no); • feeling of incomplete defecation (yes or no); • bloating or feeling of abdominal distension (five-point scale). • In Studies S241 A006 and S241.3.009, subjects completed the IBS-QOL Survey at Baseline (Day 1) and at the end of treatment. In Study S24 1.3.0 1 1, subjects completed the IBS-QOL Survey at Baseline (Day 1), at the end of the three-month treatment period, and at the end of rerandomized treatment.
In all three pivotal efficacy studies, the primary and main secondary efficacy parameters were based on the weekly diary questions on adequate relief and included the following: • 1. Number of months (one month equals four weeks) that a subject was a responder for the weekly diary questions on adequate relief. […]

[1] = 2 mg TID, 26-week treatment period, observed case, ITT N = 395
[2] = 2 mg TID, Months 1 to 3, monthly LOCF, ITT N = 395
[3] = 2 mg TID, Months 1 to 3, observed case, ITT N = 395
[4] = 2 mg TID, Months 1 to 6, monthly LOCF, ITT N = 395
[5] = Baseline BMI: <30 kg/m^2, 26-week treatment period, observed case, ITT, 2 mg TID
[6] = Baseline BMI: <30 kg/m^2, Months 1 to 3, monthly LOCF, ITT, 2 mg TID

SMILES: Cc1nccn1C[C@H]1CCc2c(c3cccc4c3n2CCC4)C1=O [Cilansetron, (R)-(−)-4,5,6,8,9,10-hexahydro-10-[(2-methyl-1H-imidazol-1-yl)methyl]-11H-pyrido-[3,2,1-jk]-carbazol-11-one]
- Overall responder rate, adequate relief of IBS symptoms [1]: 234 (59) n (%)
- Overall responder rate, adequate relief of abdominal pain/discomfort [1]: 239 (61) n (%)
- Overall responder rate, adequate relief of abnormal bowel habits [1]: 253 (64) n (%)
- Subjects who were responders for One month, Abdominal pain/discomfort [2]: 61 (15) n (%)
- Subjects who were responders for One month, Abnormal bowel habits [2]: 49 (12) n (%)
- Subjects who were responders for One month, IBS symptoms [2]: 55 (14) n (%)
- Subjects who were responders for Three months, Abdominal pain/discomfort [2]: 159 (40) n (%)
- Subjects who were responders for Three months, Abnormal bowel habits [2]: 165 (42) n (%)
- Subjects who were responders for Three months, IBS symptoms [2]: 150 (38) n (%)
- Subjects who were responders for Two months, Abdominal pain/discomfort [2]: 70 (18) n (%)
- Subjects who were responders for Two months, Abnormal bowel habits [2]: 83 (21) n (%)
- Subjects who were responders for Two months, IBS symptoms [2]: 80 (20) n (%)
- Subjects who were responders for Zero months, Abdominal pain/discomfort [2]: 105 (27) n (%)
- Subjects who were responders for Zero months, Abnormal bowel habits [2]: 98 (25) n (%)
- Subjects who were responders for Zero months, IBS symptoms [2]: 110 (28) n (%)
- Overall responder rate, adequate relief of IBS symptoms [3]: 219 (55) n (%)
- Overall responder rate, adequate relief of abdominal pain/discomfort [3]: 221 (56) n (%)
- Overall responder rate, adequate relief of abnormal bowel habits [3]: 243 (62) n (%)
- Subjects who were responders for Five months, Abdominal pain/discomfort [4]: 53 (13) n (%)
- Subjects who were responders for Five months, Abnormal bowel habits [4]: 61 (15) n (%)
- Subjects who were responders for Five months, IBS symptoms [4]: 58 (15) n (%)
- Subjects who were responders for Four months, Abdominal pain/discomfort [4]: 41 (10) n (%)
- Subjects who were responders for Four months, Abnormal bowel habits [4]: 41 (10) n (%)
- Subjects who were responders for Four months, IBS symptoms [4]: 52 (13) n (%)
- Subjects who were responders for One month, Abdominal pain/discomfort [4]: 26 (7) n (%)
- Subjects who were responders for One month, Abnormal bowel habits [4]: 17 (4) n (%)
- Subjects who were responders for One month, IBS symptoms [4]: 25 (6) n (%)
- Subjects who were responders for Six months, Abdominal pain/discomfort [4]: 133 (34) n (%)
- Subjects who were responders for Six months, Abnormal bowel habits [4]: 136 (34) n (%)
- Subjects who were responders for Six months, IBS symptoms [4]: 121 (31) n (%)
- Subjects who were responders for Three months, Abdominal pain/discomfort [4]: 31 (8) n (%)
- Subjects who were responders for Three months, Abnormal bowel habits [4]: 33 (8) n (%)
- Subjects who were responders for Three months, IBS symptoms [4]: 25 (6) n (%)
- Subjects who were responders for Two months, Abdominal pain/discomfort [4]: 26 (7) n (%)
- Subjects who were responders for Two months, Abnormal bowel habits [4]: 22 (6) n (%)
- Subjects who were responders for Two months, IBS symptoms [4]: 24 (6) n (%)
- Subjects who were responders for Zero months, Abdominal pain/discomfort [4]: 85 (22) n (%)
- Subjects who were responders for Zero months, Abnormal bowel habits [4]: 85 (22) n (%)
- Subjects who were responders for Zero months, IBS symptoms [4]: 90 (23) n (%)
- Overall responder rate, IBS symptoms (females): 63%
- Overall responder rate, abdominal pain/discomfort (females): 64%
- Overall responder rate, abnormal bowel habits (females): 67%
- Overall responder rate, IBS symptoms (males): 55%
- Overall responder rate, abdominal pain/discomfort (males): 57%
- Overall responder rate, abnormal bowel habits (males): 60%
- Overall responder rate, abdominal pain/discomfort (observed case): 61%
- Overall responder rate, abnormal bowel habits (observed case): 64%
- Overall responder rate, IBS symptoms (observed case, ITT): 59%
- Overall responder rate, IBS symptoms (weekly LOCF): 60%
- Overall responder rate, abdominal pain/discomfort (weekly LOCF): 61%
- Overall responder rate, abnormal bowel habits (weekly LOCF): 63%
- Overall responder rate difference vs placebo across diary questions (BMI≧30 kg/m^2): −10% to −1
- Overall responder rate, adequate relief of IBS symptoms [5]: 207 (63) n (%)
- Overall responder rate, adequate relief of abdominal pain/discomfort [5]: 207 (63) n (%)
- Overall responder rate, adequate relief of abnormal bowel habits [5]: 220 (67) n (%)
- Number of months a subject was a responder: One month (Abdominal pain/discomfort) [6]: 51 (15) n (%)
- Number of months a subject was a responder: One month (Abnormal bowel habits) [6]: 39 (12) n (%)
- Number of months a subject was a responder: One month (IBS symptoms) [6]: 49 (15) n (%)
- Number of months a subject was a responder: Three months (Abdominal pain/discomfort) [6]: 139 (42) n (%)
- Number of months a subject was a responder: Three months (Abnormal bowel habits) [6]: 144 (44) n (%)

Source: US20090176817A1, “Method of Treatment of Diarrhea-Predominant Irritable Bowel Syndrome in a Subject” (priority 2005, published 2009)
